Columns and labels:
[1] = molecular target: T1, Delta-type opioid receptor (Homo sapiens, UniProt P41143); experiment: Displacement of [3H]Cl-DPDPE from human recombinant delta opioid receptor expressed in CHO cell membranes after 60 mins by scintillation counting method
[2] = molecular target: T2, Kappa-type opioid receptor (Homo sapiens, UniProt P41145); experiment: Displacement of [3H]U69593 from human recombinant kappa opioid receptor expressed in CHO cell membranes after 60 mins by scintillation counting method
[3] = molecular target: T1, Delta-type opioid receptor; experiment: Agonist activity at human recombinant delta opioid receptor expressed in CHO cell membranes after 60 mins by [35S]GTPgammaS binding assay relative to DPDPE; type: functional
Mu-type opioid receptor [4] = molecular target: T3, Mu-type opioid receptor (Homo sapiens, UniProt P35372); experiment: Displacement of [3H]DAMGO from human recombinant mu opioid receptor expressed in CHO cell membranes after 60 mins by scintillation counting method
Mu-type opioid receptor [5] = molecular target: T3, Mu-type opioid receptor; experiment: Antagonist activity at human recombinant mu opioid receptor expressed in CHO cell membranes assessed as inhibition of DAMGO-induced response after 60 mins by [35S]GTPgammaS binding assay; type: functional
[6] = molecular target: T1, Delta-type opioid receptor; experiment: Agonist activity at human recombinant delta opioid receptor expressed in CHO cell membranes after 60 mins by [35S]GTPgammaS binding assay; type: functional
[7] = molecular target: T2, Kappa-type opioid receptor; experiment: Antagonist activity at human recombinant kappa opioid receptor expressed in CHO cell membranes assessed as inhibition of U69593-induced response after 60 mins by [35S]GTPgammaS binding assay; type: functional
Homo sapiens [8] = species on record: Homo sapiens; experiment: Selectivity for human recombinant delta opioid receptor over human kappa opioid receptor
Homo sapiens [9] = species on record: Homo sapiens; experiment: Selectivity for human recombinant delta opioid receptor over human mu opioid receptor
Mu-type opioid receptor [10] = molecular target: T3, Mu-type opioid receptor; experiment: Agonist activity at human recombinant mu opioid receptor expressed in CHO cell membranes after 60 mins by [35S]GTPgammaS binding assay; type: functional
Mu-type opioid receptor [11] = molecular target: T3, Mu-type opioid receptor; experiment: Agonist activity at human recombinant mu opioid receptor expressed in CHO cell membranes after 60 mins by [35S]GTPgammaS binding assay relative to DAMGO; type: functional
[12] = molecular target: T1, Delta-type opioid receptor; experiment: Antagonist activity at human recombinant delta opioid receptor expressed in CHO cell membranes assessed as inhibition of DPDPE-induced response after 60 mins by [35S]GTPgammaS binding assay; type: functional
Mu-type opioid receptor [13] = molecular target: T3, Mu-type opioid receptor; experiment: Agonist activity at human recombinant mu opioid receptor expressed in CHO cell membranes at 10 uM after 60 mins by [35S]GTPgammaS binding assay relative to DAMGO; type: functional
[14] = molecular target: T2, Kappa-type opioid receptor; experiment: Agonist activity at human recombinant kappa opioid receptor expressed in CHO cell membranes at 10 uM after 60 mins by [35S]GTPgammaS binding assay relative to U69593; type: functional
Nociceptin receptor [15] = molecular target: T4, Nociceptin receptor (Homo sapiens, UniProt P41146); experiment: Agonist activity at human recombinant NOPR receptor expressed in CHO cell membranes at 10 uM after 60 mins by [35S]GTPgammaS binding assay relative to nociceptin; type: functional
Nociceptin receptor [16] = molecular target: T4, Nociceptin receptor; experiment: Displacement of [3H]nociceptin from human recombinant NOP receptor expressed in CHO cell membranes after 60 mins by scintillation counting method
Homo sapiens [17] = species on record: Homo sapiens; experiment: Selectivity for human recombinant mu opioid receptor over human delta opioid receptor
Homo sapiens [18] = species on record: Homo sapiens; experiment: Selectivity for human recombinant mu opioid receptor over human kappa opioid receptor
[19] = molecular target: T2, Kappa-type opioid receptor; experiment: Agonist activity at human recombinant kappa opioid receptor expressed in CHO cell membranes after 60 mins by [35S]GTPgammaS binding assay; type: functional
[20] = molecular target: T2, Kappa-type opioid receptor; experiment: Agonist activity at human recombinant kappa opioid receptor expressed in CHO cell membranes after 60 mins by [35S]GTPgammaS binding assay relative to U69593; type: functional

T2 sequence (P41145 whole entry): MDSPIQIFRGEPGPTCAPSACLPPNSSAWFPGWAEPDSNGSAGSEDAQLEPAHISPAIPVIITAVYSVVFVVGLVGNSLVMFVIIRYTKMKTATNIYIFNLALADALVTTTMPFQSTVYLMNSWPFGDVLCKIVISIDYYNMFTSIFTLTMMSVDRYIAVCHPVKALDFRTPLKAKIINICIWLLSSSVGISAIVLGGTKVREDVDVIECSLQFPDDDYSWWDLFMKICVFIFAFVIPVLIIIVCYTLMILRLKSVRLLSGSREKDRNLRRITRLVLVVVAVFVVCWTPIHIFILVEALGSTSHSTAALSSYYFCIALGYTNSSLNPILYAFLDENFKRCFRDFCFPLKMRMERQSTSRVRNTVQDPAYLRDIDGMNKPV
T4 sequence (P41146 whole entry): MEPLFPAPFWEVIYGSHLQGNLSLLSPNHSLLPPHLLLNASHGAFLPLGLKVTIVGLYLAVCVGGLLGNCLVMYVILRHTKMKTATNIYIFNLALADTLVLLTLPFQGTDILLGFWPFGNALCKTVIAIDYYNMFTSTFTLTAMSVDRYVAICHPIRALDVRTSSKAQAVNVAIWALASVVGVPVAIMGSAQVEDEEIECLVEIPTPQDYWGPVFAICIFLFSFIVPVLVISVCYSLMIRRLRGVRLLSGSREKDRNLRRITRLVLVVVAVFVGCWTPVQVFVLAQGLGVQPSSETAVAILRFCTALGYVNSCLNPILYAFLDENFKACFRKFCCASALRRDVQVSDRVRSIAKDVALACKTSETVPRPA
T1 sequence (P41143 whole entry): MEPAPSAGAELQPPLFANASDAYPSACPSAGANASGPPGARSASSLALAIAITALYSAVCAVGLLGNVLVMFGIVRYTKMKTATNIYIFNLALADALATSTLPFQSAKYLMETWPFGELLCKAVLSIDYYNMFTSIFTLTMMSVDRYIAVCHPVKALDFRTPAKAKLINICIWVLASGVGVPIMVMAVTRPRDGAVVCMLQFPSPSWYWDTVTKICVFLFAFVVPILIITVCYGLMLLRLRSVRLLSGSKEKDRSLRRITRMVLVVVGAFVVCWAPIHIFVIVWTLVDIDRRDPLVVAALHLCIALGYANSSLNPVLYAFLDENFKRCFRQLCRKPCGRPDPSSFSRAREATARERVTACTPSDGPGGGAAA
T3 sequence (P35372 whole entry): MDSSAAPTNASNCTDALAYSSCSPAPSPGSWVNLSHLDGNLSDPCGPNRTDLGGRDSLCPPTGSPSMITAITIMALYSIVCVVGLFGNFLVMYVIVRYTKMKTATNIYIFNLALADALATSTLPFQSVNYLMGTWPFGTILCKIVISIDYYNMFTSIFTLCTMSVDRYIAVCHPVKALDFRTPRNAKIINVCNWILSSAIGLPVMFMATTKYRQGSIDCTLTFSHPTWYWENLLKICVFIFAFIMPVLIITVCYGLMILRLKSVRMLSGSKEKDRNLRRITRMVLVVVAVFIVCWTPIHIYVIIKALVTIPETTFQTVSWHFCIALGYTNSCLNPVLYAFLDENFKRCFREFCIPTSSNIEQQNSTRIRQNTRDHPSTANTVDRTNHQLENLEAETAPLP

| Compound | Ki [1] [nM] | Ki [2] [nM] | Activity [3] [%] | Ki (Mu-type opioid receptor [4]) [nM] | Ke (Mu-type opioid receptor [5]) [nM] | EC50 [6] [nM] | Ke [7] [nM] | EC50 (Mu-type opioid receptor [10]) [nM] | Activity (Mu-type opioid receptor [11]) [%] | Smax (Mu-type opioid receptor [13]) [%] | Smax [14] [%] | Smax (Nociceptin receptor [15]) [%] | further results |
| --- | --- | --- | --- | --- | --- | --- | --- | --- | --- | --- | --- | --- | --- |
| CN1CC[C@]23c4c5ccc(O)c4O[C@H]2C2=C(C[C@@H](CCO)C(=O)N2Cc2ccccc2)C[C@@]3(O)[C@H]1C5 | 1.02 | 4.68 | 73 | 2.03 | 32.9 | 2.37 | 29.3 | – | – | – | – | – | – |
| Cc1[nH]c2c(c1Cc1ccccc1)C[C@@]1(O)[C@H]3Cc4ccc(O)c5c4[C@@]1(CCN3CC1CC1)[C@H]2O5 | – | – | – | – | – | – | – | – | – | – | – | – | Selectivity ratio (Homo sapiens [8]): 40; Selectivity ratio (Homo sapiens [9]): 40 |
| CN1C(=O)CCC2=C1[C@@H]1Oc3c(O)ccc4c3[C@@]13CCN(C)[C@H](C4)[C@]3(O)C2 | 9.39 | 20.4 | 67 | 1.23 | – | 25.5 | – | 80 | 40 | – | – | – | – |
| C[C@H]1CC2=C([C@@H]3Oc4c(O)ccc5c4[C@@]34CCN(CC3CC3)[C@H](C5)[C@]4(O)C2)N(Cc2ccccc2)C1=O | 1.58 | 0.71 | – | 0.42 | 0.6 | – | 2.03 | – | – | – | – | – | Ke [12]: 0.57 nM |
| O=C1CCC2=C([C@@H]3Oc4c(O)ccc5c4[C@@]34CCN(CC3CC3)[C@H](C5)[C@]4(O)C2)N1Cc1cccc(F)c1 | – | – | – | – | – | – | – | – | – | -1 | -9 | 7 | – |
| CN1C(=O)[C@@H](CCO)CC2=C1[C@@H]1Oc3c(O)ccc4c3[C@@]13CCN(C)[C@H](C4)[C@]3(O)C2 | 9.25 | 182 | 80 | 12.8 | – | 30.6 | 2140 | 709 | 37 | – | – | – | – |
| O=C1CCC2=C([C@@H]3Oc4c(O)ccc5c4[C@@]34CCN(CC3CC3)[C@H](C5)[C@]4(O)C2)N1CCc1ccccc1 | – | – | – | – | – | – | – | – | – | 1 | -10 | 5 | Ki (Nociceptin receptor [16]): 1500 nM |
| O=C1CCC2=C([C@@H]3Oc4c(O)ccc5c4[C@@]34CCN(CC3CC3)[C@H](C5)[C@]4(O)C2)N1CC1CCCCC1 | 0.28 | 0.33 | – | 0.11 | – | – | – | – | – | -1 | -5 | 5 | Ki (Nociceptin receptor [16]): 880 nM |
| O=C1[C@@H](CCO)CC2=C([C@@H]3Oc4c(O)ccc5c4[C@@]34CCN(CC3CC3)[C@H](C5)[C@]4(O)C2)N1Cc1ccccc1 | 2.38 | 2.76 | – | 1.54 | 1.62 | – | 2.22 | – | – | – | – | – | Ke [12]: 0.93 nM |
| CCOC(=O)Cc1c2c(n(Cc3ccccc3)c1O)[C@@H]1Oc3c(O)ccc4c3[C@@]13CCN(CC1CC1)[C@H](C4)[C@]3(O)C2 | 10 | 4.79 | – | 8.65 | 6.61 | – | – | – | – | – | – | – | Ke [12]: 6.79 nM |
| CN1C(=O)[C@H](CCO)CC2=C1[C@@H]1Oc3c(O)ccc4c3[C@@]13CCN(C)[C@H](C4)[C@]3(O)C2 | 3.59 | 48.7 | 66 | 2.37 | – | 11.8 | 321 | 163 | 36 | – | – | – | – |
| O=C1CCC2=C([C@@H]3Oc4c(O)ccc5c4[C@@]34CCN(CC3CC3)[C@H](C5)[C@]4(O)C2)N1Cc1ccccc1 | 0.36 | 0.15 | – | 0.18 | – | – | – | – | – | -1 | -20 | 12 | Ki (Nociceptin receptor [16]): 1300 nM |
| C[C@@H]1CC2=C([C@@H]3Oc4c(O)ccc5c4[C@@]34CCN(CC3CC3)[C@H](C5)[C@]4(O)C2)N(Cc2ccccc2)C1=O | 0.85 | 0.95 | – | 0.56 | 0.5 | – | 0.23 | – | – | – | – | – | Ke [12]: 0.23 nM |
| C=CCN1CC[C@]23c4c5ccc(O)c4O[C@H]2C2=C(CCC(=O)N2CCc2ccccc2)C[C@@]3(O)[C@H]1C5 | – | – | – | – | – | – | – | – | – | -2 | -15 | 4 | – |
| CN1CC[C@]23c4c5ccc(O)c4O[C@H]2C2=C(CCC(=O)N2Cc2ccccc2)C[C@@]3(O)[C@H]1C5 | 0.92 | 1.98 | – | 0.29 | – | 3 | 21.3 | 4.97 | 52 | – | – | – | Ratio Ki (Homo sapiens [17]): 3; Ratio Ki (Homo sapiens [18]): 3 |
| O=C1[C@H](CCO)CC2=C([C@@H]3Oc4c(O)ccc5c4[C@@]34CCN(CC3CC3)[C@H](C5)[C@]4(O)C2)N1Cc1ccccc1 | 0.7 | 1.29 | – | 0.43 | 0.35 | – | 0.73 | – | – | – | – | – | Ke [12]: 0.47 nM |
| CCOC(=O)Cc1c2c(n(Cc3ccccc3)c1O)[C@@H]1Oc3c(O)ccc4c3[C@@]13CCN(C)[C@H](C4)[C@]3(O)C2 | 82.1 | 159 | 74 | 13.2 | – | 42.5 | – | 70.5 | 86 | – | – | – | EC50 [19]: 434 nM; Activity [20]: 23% |
| CN1CC[C@]23c4c5ccc(O)c4O[C@H]2C2=C(C[C@H](CCO)C(=O)N2Cc2ccccc2)C[C@@]3(O)[C@H]1C5 | 2.85 | 15.6 | 68 | 3 | – | 10.6 | 16.8 | 94.9 | 36 | – | – | – | – |
| O=C1CCC2=C([C@@H]3Oc4c(O)ccc5c4[C@@]34CCN(CC3CC3)[C@H](C5)[C@]4(O)C2)N1Cc1cccc(Cl)c1 | – | – | – | – | – | – | – | – | – | -1 | -11 | 7 | – |

— ChEMBL document CHEMBL3352469, “Pyrrolo- and pyridomorphinans: non-selective opioid antagonists and delta opioid agonists/mu opioid partial agonists” (Bioorg Med Chem, 2014)
